Test results published in patent US20260325533A1, “CDK INHIBITOR COMPOUNDS” (ALEKSIA THERAPEUTICS, INC., priority 2023, published 2026).
Like-named read-outs stand apart in the source and are kept apart here.

Key:
Type in all cases: biochemical
CDK1/CCNB1 = CDK1/CCNB1 (Homo sapiens, UniProt P06493); assay: CDK1 homogeneous time-resolved fluorescence (HTRF) kinase assay; conditions: CDK1/CCNB
How it was run: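 CDK1/CCNB1 0.5 nM + cpd, 20 min 23 °C; add 1 mM ATP, 50 nM ULight-4E-BP1 peptide, 60 min 23 °C; stop 10 mM EDTA; 2 nM Eu-Ab, 60 min; HTRF 665 nm. 11-pt half-log, top 10 μM typical; IC50.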

CDK4/CCND3 = CDK4/CCND3 (Homo sapiens, UniProt P11802); assay: CDK4 homogeneous time-resolved fluorescence (HTRF) kinase assay; conditions: CDK4/CCND
Method: (§1) A CDK homogeneous time-resolved fluorescence (HTRF) assay was used to assess the potency of the compounds described herein.
(§2) To an untreated 384-well microtiter plate (ProxiPlate) was added 100 nL 100×test compound in DMSO and 5 μL 2×CDK enzyme in assay buffer (50 mM HEPES, 1 mM EGTA, 10 mM MgCl2, 0.01% Tween 20, 2 mM DTT). The plate was centrifuged at 800 RPM for 1 min then incubated for 20 min at 23 °C. 2.5 μL per well of 4×ATP and 2.5 μL 4×ULight™-eIF4E-binding protein 1 (Thr37/46) Peptide substrate were added to all wells. After addition, the plates were centrifuged at 800 RPM for 1 min. The plates were incubated at 23 °C for 60 min. 5 μL per well 4×EDTA solution were added to each well to stop the reaction. 5 μL 4×LANCE Ultra Europium-anti-phospho-eIF4E-binding protein 1 (Thr37/46) antibody were added to each well and the plate was centrifuged for 1 min at 800 RPM. The plate was incubated for 60 min at 23 °C. Fluorescence was read at 340 nm excitation and 665 nm emission on an EnVision 2105 fluorescence reader. The final concentrations of reagents in the activity assay were 1.5 nM CDK4/CCND3, 1 mM ATP, 50 nM ULight™-eIF4E-binding protein 1 (Thr37/46) Peptide substrate, 1% DMSO, 10 mM EDTA, and 2 nM LANCE Ultra Europium-anti-phospho-eIF4E-binding protein 1 (Thr37/46).
(§3) Dose-response titrations were conducted by using an 11-point, half-logarithmic serial dilution scheme typically starting at 10 μM. Signals were reported as fluorescence units at 665 nm or the ratio of fluorescence units at 665 nm/fluorescence units at 615 nm. Signals are referred to below as “Lance signals”.
(§4) Using this assay, the IC50 values of example compounds were determined. Table 3 illustrates the IC50 for various Example compounds of Formula IA. Table 4 illustrates the IC50 for various other Example compounds of Formula I. ND=not determined.

CDK6/CCND1 = CDK6/CCND1 (Homo sapiens, UniProt Q00534); assay: CDK6 homogeneous time-resolved fluorescence (HTRF) kinase assay; conditions: CDK6/CCND
Method: as §1
as §2, with “1” for “1.5”, “CDK6/CCND1,” for “CDK4/CCND3,”
as §3, §4

CDK2/CCNE1 = CDK2/CCNE1 (Homo sapiens, UniProt P24941); assay: CDK2 homogeneous time-resolved fluorescence (HTRF) kinase assay; conditions: CDK2/CCNE
How it was run: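 IC50 derived from 11-point, half-log dilutions (usually top 10 μM) of compound, 1% DMSO. Kinase (3 nM CDK2/CCNE1) was preincubated with compound 20 min, then phosphorylated 50 nM ULight-4E-BP1 peptide at 1 mM ATP for 60 min, 23 °C. Europium-antibody TR-FRET read after EDTA stop.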

[1] = x = IC50 25-250 nM, read-out: CDK1/CCNB IC50 (25-250 nM)
[2] = x = IC50 25-250 nM, read-out: CDK4/CCND IC50 (25-250 nM)
[3] = >250 nM marked x, read-out: CDK1/CCNB IC50 >250 nM
[4] = <25 nM, read-out: CDK4/CCND IC50 <25 nM
[5] = 25-250 nM marked x, read-out: CDK6/CCND IC50 25-250 nM
[6] = 25-250 nM marked x, read-out: CDK4/CCND IC50 25-250 nM
[7] = x = IC50 <25 nM, read-out: CDK2/CCNE IC50 (<25 nM)
[8] = x = IC50 >250 nM, read-out: CDK4/CCND IC50 (>250 nM column)
[9] = x = IC50 >250 nM, read-out: CDK6/CCND IC50 (>250 nM column)

Chain of CDK1/CCNB1 (P06493 whole entry): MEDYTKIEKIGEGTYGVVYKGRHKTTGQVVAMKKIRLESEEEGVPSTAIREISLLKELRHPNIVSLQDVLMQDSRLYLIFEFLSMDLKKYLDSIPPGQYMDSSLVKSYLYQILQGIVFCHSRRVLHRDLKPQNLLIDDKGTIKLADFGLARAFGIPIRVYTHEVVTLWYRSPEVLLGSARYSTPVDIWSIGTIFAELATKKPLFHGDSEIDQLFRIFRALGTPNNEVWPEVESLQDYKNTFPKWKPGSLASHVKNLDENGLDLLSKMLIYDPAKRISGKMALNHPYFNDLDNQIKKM
Chain of CDK1/CCNB1 (P14635 whole entry partner): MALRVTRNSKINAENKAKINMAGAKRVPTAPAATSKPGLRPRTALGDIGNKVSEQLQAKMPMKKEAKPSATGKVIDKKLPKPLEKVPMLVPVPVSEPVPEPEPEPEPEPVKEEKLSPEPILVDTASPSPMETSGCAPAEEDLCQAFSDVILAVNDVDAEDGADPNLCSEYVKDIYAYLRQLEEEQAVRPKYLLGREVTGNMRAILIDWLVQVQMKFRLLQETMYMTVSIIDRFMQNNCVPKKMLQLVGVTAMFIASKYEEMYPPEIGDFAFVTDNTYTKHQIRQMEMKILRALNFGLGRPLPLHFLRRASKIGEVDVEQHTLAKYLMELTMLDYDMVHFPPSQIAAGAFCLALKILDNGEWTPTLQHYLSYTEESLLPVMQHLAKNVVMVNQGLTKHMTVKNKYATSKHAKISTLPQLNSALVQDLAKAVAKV
Chain of CDK4/CCND3 (P11802 whole entry): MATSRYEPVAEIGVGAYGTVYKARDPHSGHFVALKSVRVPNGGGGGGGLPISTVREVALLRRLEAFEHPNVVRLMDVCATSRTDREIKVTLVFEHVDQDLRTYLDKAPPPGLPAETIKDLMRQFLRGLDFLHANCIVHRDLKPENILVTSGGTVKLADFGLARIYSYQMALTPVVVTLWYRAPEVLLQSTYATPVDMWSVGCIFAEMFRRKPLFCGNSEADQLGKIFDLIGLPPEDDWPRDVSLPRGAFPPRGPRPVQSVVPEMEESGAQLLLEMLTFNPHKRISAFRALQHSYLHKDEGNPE
Chain of CDK4/CCND3 (P30281 whole entry partner): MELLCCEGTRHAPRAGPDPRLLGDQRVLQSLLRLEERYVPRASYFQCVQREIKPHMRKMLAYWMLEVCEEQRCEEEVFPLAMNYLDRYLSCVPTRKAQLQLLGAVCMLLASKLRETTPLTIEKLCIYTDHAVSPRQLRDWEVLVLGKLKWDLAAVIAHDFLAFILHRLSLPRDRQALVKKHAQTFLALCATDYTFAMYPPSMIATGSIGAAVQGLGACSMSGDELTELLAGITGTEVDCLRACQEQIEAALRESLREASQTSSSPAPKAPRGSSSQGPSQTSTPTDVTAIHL
Chain of CDK6/CCND1 (Q00534 whole entry): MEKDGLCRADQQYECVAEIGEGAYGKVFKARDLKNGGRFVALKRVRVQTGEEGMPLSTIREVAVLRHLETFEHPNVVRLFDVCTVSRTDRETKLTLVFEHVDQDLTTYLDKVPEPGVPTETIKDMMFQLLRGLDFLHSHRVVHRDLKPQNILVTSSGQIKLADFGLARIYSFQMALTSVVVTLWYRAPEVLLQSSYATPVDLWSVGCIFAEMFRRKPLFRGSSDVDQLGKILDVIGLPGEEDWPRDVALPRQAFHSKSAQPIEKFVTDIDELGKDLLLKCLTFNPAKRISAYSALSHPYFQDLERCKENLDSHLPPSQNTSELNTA
Chain of CDK6/CCND1 (P24385 whole entry partner): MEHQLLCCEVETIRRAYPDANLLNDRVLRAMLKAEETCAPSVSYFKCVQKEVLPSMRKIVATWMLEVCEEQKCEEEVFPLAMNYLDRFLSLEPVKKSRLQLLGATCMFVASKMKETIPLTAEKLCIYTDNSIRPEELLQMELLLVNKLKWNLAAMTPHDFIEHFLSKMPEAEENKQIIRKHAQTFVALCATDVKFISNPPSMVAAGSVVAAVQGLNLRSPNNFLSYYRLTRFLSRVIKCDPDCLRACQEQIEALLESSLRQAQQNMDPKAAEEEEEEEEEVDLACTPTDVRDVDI

CCS(=N)(=O)c1ccc(Nc2cc3c(C#Cc4ccc5c(c4)NC(=O)C54CC4)nccc3cn2)cc1 (racemic) [Ex 376, 6'-((7-((4-(ethylsulfonimidoyl)phenyl)amino)-2,6-naphthyridin-1-yl)ethynyl)spiro[cyclopropane-1,3'-indolin]-2'-one]
IC50 (CDK1/CCNB1; [1]): 25 to 250 nM | IC50 (CDK4/CCND3; [2]): 25 to 250 nM | IC50 (CDK6/CCND1; x = IC50 25-250 nM, read-out: CDK6/CCND IC50 (25-250 nM)): 25 to 250 nM

CNC(=O)C1CCCN(c2nccc3cnc(NC4CCN(S(C)(=O)=O)CC4)cc23)C1 (single isomer, unassigned) [Ex 33, N-methyl-1-(7-((1-(methylsulfonyl)piperidin-4-yl)amino)-2,6-naphthyridin-1-yl)piperidine-3-carboxamide]
IC50 (CDK1/CCNB1; [3]): > 250 nM | IC50 (CDK4/CCND3; [4]): < 25 nM | IC50 (CDK6/CCND1; [5]): 25 to 250 nM

CS(=O)(=O)N1CCC(Nc2cc3c(N4CCC(C#N)C4)nccc3cn2)CC1 (single isomer, unassigned) [Ex 261, 1-(7-((1-(methylsulfonyl)piperidin-4-yl)amino)-2,6-naphthyridin-1-yl)pyrrolidine-3-carbonitrile]
IC50 (CDK1/CCNB1; [3]): > 250 nM | IC50 (CDK4/CCND3; [6]): 25 to 250 nM | IC50 (CDK6/CCND1; [5]): 25 to 250 nM

CC(C)S(=N)(=O)c1ccc(Nc2cc3c(C#Cc4ccc5c(c4)NC(=O)C5(C)CO)nccc3cn2)cc1 (single isomer, unassigned) [Ex 329, 3-(hydroxymethyl)-3-methyl-6-((7-((4-(propan-2-ylsulfonimidoyl)phenyl)amino)-2,6-naphthyridin-1-yl)ethynyl)indolin-2-one]
IC50 (CDK4/CCND3; [4]): < 25 nM | IC50 (CDK6/CCND1; [5]): 25 to 250 nM

Cc1cc2c(cc1C#Cc1nccc3cnc(Nc4ccc(S(=N)(=O)C(C)C)cc4)cc13)NC(=O)C2(C)C (single isomer, unassigned) [Ex 343, 3,3,5-trimethyl-6-((7-((4-(propan-2-ylsulfonimidoyl)phenyl)amino)-2,6-naphthyridin-1-yl)ethynyl)indolin-2-one]
IC50 (CDK2/CCNE1; [7]): < 25 nM | IC50 (CDK1/CCNB1; [1]): 25 to 250 nM | IC50 (CDK4/CCND3; [2]): 25 to 250 nM

CC(C)S(=N)(=O)c1ccc(Nc2cc3c(C#Cc4ccc5c(c4)NC(=O)C54CCC4)nccc3cn2)cc1 (single isomer, unassigned) [Ex 384, 6'-((7-((4-(propan-2-ylsulfonimidoyl)phenyl)amino)-2,6-naphthyridin-1-yl)ethynyl)spiro[cyclobutane-1,3'-indolin]-2'-one]
IC50 (CDK4/CCND3; [8]): > 250 nM | IC50 (CDK6/CCND1; [9]): > 250 nM

CC1(C)C(=O)Nc2cc(C#Cc3nccc4cnc(Nc5ccc(S(=N)(=O)C6CCC6)cc5)cc34)ccc21 (single isomer, unassigned) [Ex 454, 6-((7-((4-(cyclobutanesulfonimidoyl)phenyl)amino)-2,6-naphthyridin-1-yl)ethynyl)-3,3-dimethylindolin-2-one]
IC50 (CDK1/CCNB1; [1]): 25 to 250 nM | IC50 (CDK4/CCND3; x = IC50 <25 nM, read-out: CDK4/CCND IC50 (<25 nM)): < 25 nM

CS(=O)(=O)N1CCC(Nc2cc3c(-c4ccc(N5CCOCC5)cc4)nccc3cn2)CC1 [Ex 65, N-(1-(methylsulfonyl)piperidin-4-yl)-5-(4-morpholinophenyl)-2,6-naphthyridin-3-amine]
IC50 (CDK2/CCNE1; 25-250 nM marked x, read-out: CDK2/CCNE IC50 25-250 nM): 25 to 250 nM | IC50 (CDK4/CCND3; [6]): 25 to 250 nM | IC50 (CDK6/CCND1; [5]): 25 to 250 nM

CC1(C)C(=O)Nc2cc(C#Cc3nccc4cnc(Nc5ccc(S(C)(=O)=O)cc5F)cc34)ccc21 [Ex 438, 6-((7-((2-fluoro-4-(methylsulfonyl)phenyl)amino)-2,6-naphthyridin-1-yl)ethynyl)-3,3-dimethylindolin-2-one]
IC50 (CDK2/CCNE1; [7]): < 25 nM | IC50 (CDK4/CCND3; [8]): > 250 nM | IC50 (CDK6/CCND1; [9]): > 250 nM

CC(=O)NCCn1cc2c(C)c(-c3nccc4cnc(Nc5ccc(S(C)(=O)=O)cc5)cc34)ccc2n1 [Ex 632, N-(2-(4-methyl-5-(7-((4-(methylsulfonyl)phenyl)amino)-2,6-naphthyridin-1-yl)-2H-indazol-2-yl)ethyl)acetamide]
IC50 (CDK2/CCNE1; x = IC50 25-250 nM, read-out: CDK2/CCNE IC50 (25-250 nM)): 25 to 250 nM | IC50 (CDK4/CCND3; [8]): > 250 nM | IC50 (CDK6/CCND1; [9]): > 250 nM
